Results taken from publication PMC2430034, “Structural Development Studies of Subtype-Selective Ligands for Peroxisome Proliferator-Activated Receptors (PPARs) Based on the 3,4-Disubstituted Phenylpropanoic Acid Scaffold as a Versatile Template” (PPAR Research, 2008).
Read-outs that look alike come from different tables or passages of the source.

Assays:
Format in all cases: cell-based
PPARα [1] = target: T1, PPARα (Homo sapiens, UniProt Q07869); assay: PPARα-GAL4 chimeric receptor transactivation in HEK-293 cells; details: PPAR-GAL4 chimeric receptors, transiently transfected HEK-293 cells; ia = inactive at 10 μM
T1 sequence (Q07869 200-468 limits assumed): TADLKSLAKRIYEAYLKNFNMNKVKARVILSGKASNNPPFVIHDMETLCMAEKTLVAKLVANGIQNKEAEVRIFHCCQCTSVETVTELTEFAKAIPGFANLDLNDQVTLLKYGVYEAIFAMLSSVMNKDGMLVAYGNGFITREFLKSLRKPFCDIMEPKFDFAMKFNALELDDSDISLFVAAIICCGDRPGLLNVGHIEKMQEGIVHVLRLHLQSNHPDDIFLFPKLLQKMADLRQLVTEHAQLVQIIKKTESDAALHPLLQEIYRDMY

PPARγ [2] = target: T2, PPARγ (Homo sapiens, UniProt P37231); assay: cell-based; details: PPAR-GAL4 chimeric receptors, transiently transfected HEK-293 cells; ia = inactive at 10 μM; read-out: Transactivation activity EC50 PPARγ
T2 sequence (P37231 238-505 limits assumed): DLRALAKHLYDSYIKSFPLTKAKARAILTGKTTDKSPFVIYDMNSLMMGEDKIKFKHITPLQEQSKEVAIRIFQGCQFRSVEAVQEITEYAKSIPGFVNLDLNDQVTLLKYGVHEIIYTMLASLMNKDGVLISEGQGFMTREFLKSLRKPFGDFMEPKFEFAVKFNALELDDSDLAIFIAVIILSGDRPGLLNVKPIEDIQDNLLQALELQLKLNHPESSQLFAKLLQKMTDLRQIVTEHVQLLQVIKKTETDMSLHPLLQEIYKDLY

PPARδ [3] = target: T3, PPARδ (Homo sapiens, UniProt Q03181); assay: cell-based; details: PPAR-GAL4 chimeric receptors, transiently transfected HEK-293 cells; ia = inactive at 10 μM; read-out: Transactivation activity EC50 PPARδ
T3 sequence (Q03181 171-441 limits assumed): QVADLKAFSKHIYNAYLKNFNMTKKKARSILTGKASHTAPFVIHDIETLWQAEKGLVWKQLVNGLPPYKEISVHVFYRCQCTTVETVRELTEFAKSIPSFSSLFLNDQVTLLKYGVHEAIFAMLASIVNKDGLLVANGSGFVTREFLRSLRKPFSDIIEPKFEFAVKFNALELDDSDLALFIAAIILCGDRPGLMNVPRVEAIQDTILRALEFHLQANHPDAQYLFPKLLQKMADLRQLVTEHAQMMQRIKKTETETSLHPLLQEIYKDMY

PPARδ [4] = target: T4, PPARδ (Homo sapiens, UniProt Q03181); assay: cell-based; details: PPAR-GAL4 chimeric receptors, transiently transfected CHO-K1 cells, ia = inactive at 10 μM; for EC50: read-out: Transactivation activity EC50 PPARδ
T4 sequence (Q03181 211-441 limits assumed): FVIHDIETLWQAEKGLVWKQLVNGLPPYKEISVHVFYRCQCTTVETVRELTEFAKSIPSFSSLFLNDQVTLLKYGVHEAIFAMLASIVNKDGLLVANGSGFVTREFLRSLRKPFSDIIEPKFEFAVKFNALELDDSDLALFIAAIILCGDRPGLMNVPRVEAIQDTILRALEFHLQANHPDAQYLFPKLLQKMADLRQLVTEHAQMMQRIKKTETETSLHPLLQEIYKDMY

PPARγ [5] = target: T5, PPARγ (Homo sapiens, UniProt P37231); assay: cell-based; details: PPAR-GAL4 chimeric receptors, transiently transfected CHO-K1 cells, ia = inactive at 10 μM; for EC50: read-out: Transactivation activity EC50 PPARγ
T5 sequence (P37231 232-505 limits assumed): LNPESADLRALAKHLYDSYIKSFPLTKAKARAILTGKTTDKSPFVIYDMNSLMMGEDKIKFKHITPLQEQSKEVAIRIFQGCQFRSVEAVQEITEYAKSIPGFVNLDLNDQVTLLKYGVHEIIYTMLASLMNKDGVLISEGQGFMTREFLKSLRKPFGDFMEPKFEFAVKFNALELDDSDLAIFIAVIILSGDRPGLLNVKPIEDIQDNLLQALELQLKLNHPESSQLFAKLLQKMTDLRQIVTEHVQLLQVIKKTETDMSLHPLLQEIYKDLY

PPARα [6] = target: T1, PPARα; assay: PPARα-GAL4 chimeric receptor transactivation in CHO-K1 cells; details: PPAR-GAL4 chimeric receptors, transiently transfected CHO-K1 cells, ia = inactive at 10 μM; for EC50: read-out: Transactivation activity EC50 PPARα

SMILES	Transactivation activity EC50 PPARδ (PPARδ [4])	Transactivation activity EC50 PPARγ (PPARγ [5])	Transactivation activity EC50 PPARα (PPARα [6])	EC50 (PPARα [6])	further results
CCC(Cc1ccc(OC)c(CNC(=O)c2ccc(C(F)(F)F)cc2F)c1)C(=O)O (racemic) [Compound 38]					EC50 (PPARα [1]): 10 nM; EC50 (PPARγ [2]): 2200 nM; EC50 (PPARδ [3]): 24 nM
CCC(Cc1ccc(OC)c(CNC(=O)c2ccc(C(F)(F)F)cc2)c1)C(=O)O (racemic) [Compound 49]					EC50 (PPARα [1]): 18 nM; EC50 (PPARδ [3]): 170 nM
CCC(Cc1ccc(OC)c(CNC(=O)c2ccc(C(F)(F)F)cc2F)c1)C(=O)O (racemic) [Compound 55]					EC50 (PPARα [1]): 8.2 nM; EC50 (PPARδ [3]): 21 nM
COc1ccc(C(=O)O)cc1C(=O)NCc1ccc(C(F)(F)F)cc1 [Compound 7]	ia	ia	ia^(b)		
COc1ccc(CC(=O)O)cc1C(=O)NCc1ccc(C(F)(F)F)cc1 [Compound 8]	ia	ia	ia		
COc1ccc(CCC(=O)O)cc1C(=O)NCc1ccc(C(F)(F)F)cc1 [Compound 9]	ia	ia		1300 nM	
COc1ccc(CC(C)C(=O)O)cc1C(=O)NCc1ccc(C(F)(F)F)cc1 (stereo not drawn) [Compound 10]		ia		240 nM	EC50 (PPARδ [4]): 2800 nM
CCC(Cc1ccc(OC)c(C(=O)NCc2ccc(C(F)(F)F)cc2)c1)C(=O)O (stereo not drawn) [Compound 11]				40 nM	EC50 (PPARδ [4]): 3600 nM
CCCC(Cc1ccc(OC)c(C(=O)NCc2ccc(C(F)(F)F)cc2)c1)C(=O)O (stereo not drawn) [Compound 12]		ia		360 nM	EC50 (PPARδ [4]): 2400 nM
COc1ccc(CC(C(=O)O)C(C)C)cc1C(=O)NCc1ccc(C(F)(F)F)cc1 (stereo not drawn) [Compound 13]	ia	ia		290 nM	
CCCCC(Cc1ccc(OC)c(C(=O)NCc2ccc(C(F)(F)F)cc2)c1)C(=O)O (stereo not drawn) [Compound 14]	ia			1000 nM	EC50 (PPARγ [5]): 2500 nM
COc1ccc(CC(C(=O)O)c2ccccc2)cc1C(=O)NCc1ccc(C(F)(F)F)cc1 (stereo not drawn) [Compound 15]	ia	ia	ia		
COc1ccc(CC(OC)C(=O)O)cc1C(=O)NCc1ccc(C(F)(F)F)cc1 (stereo not drawn) [Compound 16]	ia	ia		230 nM	
CCOC(Cc1ccc(OC)c(C(=O)NCc2ccc(C(F)(F)F)cc2)c1)C(=O)O (stereo not drawn) [Compound 17]				1600 nM	EC50 (PPARδ [4]): 3000 nM; EC50 (PPARγ [5]): 2800 nM
COc1ccc(CC(Oc2ccccc2)C(=O)O)cc1C(=O)NCc1ccc(C(F)(F)F)cc1 (stereo not drawn) [Compound 18]	ia	ia	ia		
COc1ccc(CC(C)(C)C(=O)O)cc1C(=O)NCc1ccc(C(F)(F)F)cc1 [Compound 19]	ia	ia		2900 nM	
CCC(CC)(Cc1ccc(OC)c(C(=O)NCc2ccc(C(F)(F)F)cc2)c1)C(=O)O [Compound 20]	ia	ia		2800 nM	
COc1ccc(CC(Sc2ccccc2)C(=O)O)cc1C(=O)NCc1ccc(C(F)(F)F)cc1 (stereo not drawn) [Compound 22]	ia	ia	ia		
COc1ccc(CC(SCc2ccccc2)C(=O)O)cc1C(=O)NCc1ccc(C(F)(F)F)cc1 (stereo not drawn) [Compound 23]	ia	ia	ia		
